Measurements published in publication PMC8678482, “Suppression of the Lycopene Cyclase Gene Causes Downregulation of Ascorbate Peroxidase Activity and Decreased Glutathione Pool Size, Leading to H2O2 Accumulation in Euglena gracilis” (Frontiers in Plant Science, 2021).

Target: T1, EgLCY (Euglena gracilis, UniProt A0A7I8I611)
T1 construct: gene lcy; full-length open reading frame in pETDuet-1 (pET-EgLCY, NcoI In-Fusion), expressed in lycopene-accumulating E. coli BL21(DE3) carrying pACCRT-EIB
T1 sequence (A0A7I8I611 1-652): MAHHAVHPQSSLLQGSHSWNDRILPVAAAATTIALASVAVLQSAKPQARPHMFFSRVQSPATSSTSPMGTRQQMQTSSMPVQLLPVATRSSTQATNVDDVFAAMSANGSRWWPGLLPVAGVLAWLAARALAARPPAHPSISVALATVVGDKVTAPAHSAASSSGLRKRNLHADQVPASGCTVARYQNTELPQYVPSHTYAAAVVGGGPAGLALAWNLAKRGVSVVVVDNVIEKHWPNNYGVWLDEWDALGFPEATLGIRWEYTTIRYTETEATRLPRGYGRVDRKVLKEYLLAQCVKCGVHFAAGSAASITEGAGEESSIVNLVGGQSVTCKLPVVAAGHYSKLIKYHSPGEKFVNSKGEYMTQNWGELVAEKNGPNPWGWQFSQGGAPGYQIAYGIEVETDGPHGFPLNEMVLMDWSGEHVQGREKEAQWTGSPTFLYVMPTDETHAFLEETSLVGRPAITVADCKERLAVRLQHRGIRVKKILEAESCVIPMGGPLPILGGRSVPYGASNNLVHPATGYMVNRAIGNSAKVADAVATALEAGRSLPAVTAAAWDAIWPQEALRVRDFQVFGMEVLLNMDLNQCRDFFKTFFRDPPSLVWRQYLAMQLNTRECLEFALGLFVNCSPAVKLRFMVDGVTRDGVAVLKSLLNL
Assay: in vivo conversion in lycopene-accumulating E. coli, HPLC of carotenoid extracts
Assay type: cell-based
Details: co-expression with Pantoea ananatis crtE, crtB, crtI; 48 h at 21°C after IPTG

Structure (SMILES) | in vivo conversion in lycopene-accumulating E. coli, HPLC of carotenoid extracts
CC1=C(/C=C/C(C)=C/C=C/C(C)=C/C=C/C=C(C)/C=C/C=C(C)/C=C/C2=C(C)CCCC2(C)C)C(C)(C)CCC1 [β-carotene] | accumulated β-carotene as the main carotenoid when the EgLCY gene was co-expressed
CC(C)=CCC/C(C)=C/C=C/C(C)=C/C=C/C(C)=C/C=C/C=C(C)/C=C/C=C(C)/C=C/C=C(\C)CCC=C(C)C [lycopene] | This indicates that EgLCY is a lycopene β-cyclase that converts lycopene to β-carotene.
